Key:
human JAK1 = biological target: T1, human JAK1 (Homo sapiens, UniProt P23458); assay: JAK1 kinase enzyme assay (Alphascreen); type: biochemical; conditions: 80 or 625 um ATP
T1 construct: The kinase domain of human JAK1 was amplified; GST (N); made in house; host or cells: Sf9 (Spodoptera frugiperda) insect cells, baculovirus
Description: For screening purposes, compounds (in 100% DMSO) were warmed at 37 degrees for at least 20 minutes before use. A […] stock was initially made in assay buffer, where the final concentration of DMSO was 0.3%. The stocks were then diluted in 384 well Optiplates (Packard) where the final concentration of the compound was 5 μM.
The kinase domain of human JAK1 was amplified from U937mRNA using the polymerase chain reaction with the following primers: […]
The JAK1 PCR products were cloned into the pDest20 destination vector (Gibco). The JAK1 plasmid was then transformed into competent DH10Bac cells (Gibco), and the recombinant baculovirus was prepared via Sf9 insect cell transfection.
Baculovirus preparations from each of the JAK family members were infected into one litre of Sf9 (Spodoptera frugiperda) cells (Invitrogen) grown in SF900II serum free medium (Invitrogen) to a cell density of approximately 2×10^6 cells/ml. Cells were infected with virus at a cell culture to virus stock ratio of 20:1. Cells were harvested and lysed 48 hours post infection. The GST-tagged JAK kinase domains were purified by affinity chromatography on a GSH agarose column (Scientifix).
Kinase assays were performed in 384 well Optiplates (Packard) using an Alphascreen Protein Tyrosine KinaseP100 detection kit The compounds were pre-incubated with affinity purified PTK domain in the presence of phosphotyrosine assay buffer (10 mM HEPES, pH 7.5, 100 mM MgCl2, 25 mM NaCl, 200 mM sodium vanadate and 0.1% Tween 20) for 20 minutes. The compounds were then incubated with substrate in the presence of either 80 or 625 um ATP for 60 or 90 minutes. The substrate used was either susbtrate-1 with the sequence biotin-EGPWLEEEEEAYGWMDF-NH2 [SEQ. ID. NO. 13] (final concentration 111 μM) or susbtrate-2 substrate with the sequence biotin-EQEDEPEGDYFEWLEPE (final concentration 133 μM). Alphascreen phosphotyrosine acceptor beads followed by streptavidin donor beads at a concentration of 1/100 in stop buffer were added to each well under subdued light and incubated for 2-3 hours. The Alphascreen plates were read on a Packard Fusion Alpha instrument.

human JAK2 = biological target: T2, human JAK2 (Homo sapiens, UniProt O60674); assay: JAK2 kinase enzyme assay (Alphascreen); type: biochemical; conditions: 80 or 625 um ATP
T2 construct: The kinase domain of human JAK2 was amplified; GST (N); made in house; host or cells: Sf9 (Spodoptera frugiperda) insect cells, baculovirus
How it was run: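 Compounds at 5 μM final were pre-incubated 20 min with Sf9-expressed GST-JAK2 kinase domain in HEPES pH 7.5 phosphotyrosine buffer, then incubated 60 or 90 min with 80 or 625 um ATP. Substrate was biotinylated peptide 1 (111 μM final) or peptide 2 (133 μM final). Phosphotyrosine was detected by AlphaScreen acceptor/streptavidin donor beads after 2–3 h.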

human JAK3 = biological target: T3, human JAK3 (Homo sapiens, UniProt P52333); assay: JAK3 kinase enzyme assay (Alphascreen); type: biochemical; conditions: 80 or 625 um ATP
T3 construct: The kinase domain of human JAK3 was amplified; GST (N); made in house; host or cells: Sf9 (Spodoptera frugiperda) insect cells, baculovirus
How it was run: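 Sf9-expressed GST-tagged human JAK3 kinase domain was pre-incubated 20 min with compound at 5 μM final in HEPES pH 7.5 buffer. Then 60 or 90 min reaction with 80 or 625 μM ATP and biotinylated peptide substrate at 111 or 133 μM. AlphaScreen phosphotyrosine acceptor and streptavidin donor beads, 2–3 h.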

BafT_J2 = assay: Cellular screening, BaF3 TEL:JAK2 cells (Alamar Blue); type: cell-based; conditions: Mus musculus, 40 hr incubation
How it was run: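 BaF3 cells expressing a TEL–JAK2 kinase-domain fusion, growth-factor independent, were exposed to compounds for 40 hr at 37° C, 5% CO2. Screening concentration was 20 μM in the dilution plate, added as 10× final. Viability read with Alamar Blue after a further 4-6 h, at 544 nm.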

BAF3wt = assay: Cellular screening, BaF3 wild-type cells (Alamar Blue); type: cell-based; conditions: Mus musculus, 40 hr incubation
How it was run: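 BaF3 wild-type cells grown in DMEM with 10% FCS and 10% WEHI 3B conditioned medium, incubated with compound for 40 h at 37 °C, 5% CO2. Viability read by Alamar Blue after a further 4-6 h, at 544 nm; screening concentration 20 μM in dilution plate.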

BafT_J3 = assay: Cellular screening, BaF3 TEL:JAK3 cells (Alamar Blue); type: cell-based; conditions: Mus musculus, 40 hr incubation
How it was run: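 Growth-factor-independent BaF3 tet-off cells express a TEL(nt 1–487)/JAK3 kinase-domain fusion and are grown without WEHI 3B medium. Compound plates were prepared at 20 μM and added as 10× final. After 40 h at 37 °C, 5% CO2, Alamar Blue was added for 4–6 h and read at 544 nm.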

CTLL2 = assay: Cellular screening, CTLL2 cells (Alamar Blue); type: cell-based; conditions: Mus musculus, CTLL-2, 40 hr incubation
How it was run: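 CTLL2 cells in late log phase were incubated with compounds, from screening plates at 20 μM, for 40 hr at 37° C, 5% CO2. Viability was read by Alamar Blue, added for a further 4-6 hours, with the read at 544 nm.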

T3 sequence (P52333 822-1111 limits assumed): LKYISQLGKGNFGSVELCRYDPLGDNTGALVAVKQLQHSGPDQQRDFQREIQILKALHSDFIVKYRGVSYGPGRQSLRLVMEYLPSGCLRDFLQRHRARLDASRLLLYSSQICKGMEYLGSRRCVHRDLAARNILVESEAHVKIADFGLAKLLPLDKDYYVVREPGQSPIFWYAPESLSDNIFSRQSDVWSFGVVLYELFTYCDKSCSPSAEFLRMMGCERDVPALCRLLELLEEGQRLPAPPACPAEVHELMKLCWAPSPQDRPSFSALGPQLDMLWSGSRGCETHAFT
T2 sequence (O60674 849-1124 limits assumed): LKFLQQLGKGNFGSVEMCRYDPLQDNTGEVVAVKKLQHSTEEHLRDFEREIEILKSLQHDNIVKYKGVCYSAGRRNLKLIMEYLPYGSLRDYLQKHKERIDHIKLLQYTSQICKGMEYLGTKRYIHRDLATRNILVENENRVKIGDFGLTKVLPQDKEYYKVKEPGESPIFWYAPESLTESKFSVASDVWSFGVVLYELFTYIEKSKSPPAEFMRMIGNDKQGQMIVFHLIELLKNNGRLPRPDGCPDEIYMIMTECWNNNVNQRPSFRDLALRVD
T1 sequence (P23458 875-1153 limits assumed): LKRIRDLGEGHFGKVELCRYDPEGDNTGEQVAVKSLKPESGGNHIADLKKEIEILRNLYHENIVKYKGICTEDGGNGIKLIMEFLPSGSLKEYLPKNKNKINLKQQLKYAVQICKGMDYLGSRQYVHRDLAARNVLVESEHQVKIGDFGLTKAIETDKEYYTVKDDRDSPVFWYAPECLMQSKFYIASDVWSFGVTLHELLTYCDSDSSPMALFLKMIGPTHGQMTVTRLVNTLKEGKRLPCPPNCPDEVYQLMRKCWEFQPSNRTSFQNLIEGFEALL

SMILES	IC50 (human JAK1) [nM]	IC50 (human JAK2) [nM]	IC50 (human JAK3) [nM]	IC50 (BafT_J2) [nM]	IC50 (BAF3wt) [nM]	IC50 (BafT_J3) [nM]	IC50 (CTLL2) [nM]	IC50 (BAF3wt; given as number) [nM]	IC50 (BafT_J3; given as number) [nM]	IC50 (CTLL2; given as number) [nM]
NS(=O)(=O)c1ccc(-c2csc3cnc(Nc4ccc(N5CCOCC5)cc4)nc23)cc1 [Compound 11, 4-(2-(4-morpholinophenylamino)thieno[3,2-d]pyrimidin-7-yl)benzenesulfonamide]	< 100	< 100	< 100	< 1000	< 5000	< 5000	< 1000	–	–	–
CCNC(=O)Nc1ccc(-c2csc3cnc(Nc4ccc(N5CCOCC5)cc4)nc23)cc1OC [Compound 13, 1-ethyl-3-(2-methoxy-4-(2-(4-morpholinophenylamino)thieno[3,2-d]pyrimidin-7-yl)phenyl)urea]	< 500	< 100	< 100	< 1000	< 1000	< 5000	< 5000	–	–	–
CS(=O)(=O)Nc1ccc(-c2csc3cnc(Nc4ccc(N5CCOCC5)cc4)nc23)cc1 [Compound 14, N-(4-(2-(4-morpholinophenylamino)thieno[3,2-d]pyrimidin-7-yl)phenyl)methanesulfonamide]	< 100	< 100	< 100	< 1000	< 1000	< 1000	< 1000	–	–	–
COc1cc(-c2csc3cnc(Nc4ccc(N5CCOCC5)cc4)nc23)ccc1O [Compound 15, 2-methoxy-4-(2-(4-morpholinophenylamino)thieno[3,2-d]pyrimidin-7-yl)phenol]	< 100	< 100	< 100	< 1000	–	–	–	> 20000	> 20000	> 20000
N#CCC(=O)Nc1cccc(-c2csc3cnc(Nc4ccc(N5CCOCC5)cc4)nc23)c1 [Compound 16, 2-cyano-N-(3-(2-(4-morpholinophenylamino)thieno[3,2-d]pyrimidin-7-yl)phenyl)acetamide]	< 100	< 100	< 100	< 1000	< 1000	< 1000	< 1000	–	–	–
CS(=O)(=O)Nc1cccc(-c2csc3cnc(Nc4ccc(N5CCOCC5)cc4)nc23)c1 [Compound 18, N-(3-(2-(4-morpholinophenylamino)thieno[3,2-d]pyrimidin-7-yl)phenyl)methanesulfonamide]	< 100	< 100	< 100	< 1000	< 1000	< 1000	< 1000	–	–	–
CS(=O)(=O)N(CC#N)c1cccc(-c2csc3cnc(Nc4ccc(N5CCOCC5)cc4)nc23)c1 [Compound 31, N-(cyanomethyl)-N-(3-(2-(4-morpholinophenylamino)thieno[3,2-d]pyrimidin-7-yl)phenyl)methanesulfonamide]	< 100	< 100	< 100	< 1000	< 1000	< 1000	< 1000	–	–	–
Cn1cc(-c2ccc(S(N)(=O)=O)cc2)c2nc(Nc3ccc(N4CCOCC4)cc3)ncc21 [Compound 34, 4-(5-methyl-2-(4-morpholinophenylamino)-5H-pyrrolo[3,2-d]pyrimidin-7-yl)benzenesulfonamide]	< 100	< 100	< 500	< 1000	< 20000	–	–	–	> 20000	> 20000
CC(C)(C)NS(=O)(=O)c1cccc(-c2csc3cnc(Nc4cccc(N5CCOCC5)c4)nc23)c1 [Compound 47, N-tert-butyl-3-(2-(3-morpholinophenylamino)thieno[3,2-d]pyrimidin-7-yl)benzenesulfonamide]	< 100	< 100	< 500	< 5000	< 5000	< 5000	< 5000	–	–	–
CC(C)(C)NS(=O)(=O)c1cccc(-c2csc3cnc(Nc4cccc(CO)c4)nc23)c1 [Compound 48, N-tert-butyl-3-(2-(3-(hydroxymethyl)phenylamino)thieno[3,2-d]pyrimidin-7-yl)benzenesulfonamide]	< 100	< 100	< 500	< 1000	< 1000	< 1000	< 1000	–	–	–
COc1cc(Nc2ncc3scc(-c4cccc(S(=O)(=O)NC(C)(C)C)c4)c3n2)cc(OC)c1OC [Compound 50, N-tert-butyl-3-(2-(3,4,5-trimethoxyphenylamino)thieno[3,2-d]pyrimidin-7-yl)benzenesulfonamide]	< 100	< 100	< 500	< 1000	< 1000	< 1000	< 1000	–	–	–
COc1ccc(Nc2ncc3scc(-c4cccc(S(=O)(=O)NC(C)(C)C)c4)c3n2)cc1OC [Compound 53, N-tert-butyl-3-(2-(3,4-dimethoxyphenylamino)thieno[3,2-d]pyrimidin-7-yl)benzenesulfonamide]	< 100	< 100	< 500	< 1000	< 1000	< 1000	< 5000	–	–	–

— US8765755B2, “N-containing heterocyclic compounds” (YM Biosciences Australia Pty Ltd, priority 2007, dated 2014)
